Values after ≈ are worked out from the molar mass of the structure shown. One block for each compound: values may come before it.
How the values were obtained:
[1] = Selectivity index, ratio of cytotoxicity towards human HepG2.2.15 cells to IC50 for HBV DNA production; type: toxicity, cell-based; details: read-out: Selectivity Index
[2] = system: Hepatitis B virus; experiment: Antiviral activity against Hepatitis B virus infected in human HepG2.2.15 cells assessed as decrease in HBV DNA production; type: functional, organism-based; details: HepG2 2.2.15
[3] = system: Hepatitis B virus; experiment: Antiviral activity against Hepatitis B virus assessed as inhibition of interaction between Trx-PreS and HBcAg; type: functional, organism-based
[4] = system: Hepatitis B virus; experiment: Antiviral activity against Hepatitis B virus infected in human HepG2.2.15 cells assessed as decrease in HBV surface antigen secretion; type: functional, organism-based, HepG2 2.2.15; details: Hepatitis B virus, HepG2 2.2.15
[5] = Selectivity index, ratio of cytotoxicity towards human HepG2.2.15 cells to IC50 for HBV e antigen secretion; type: toxicity, cell-based; details: read-out: Selectivity Index
[6] = system: Hepatitis B virus; experiment: Antiviral activity against Hepatitis B virus infected in human HepG2.2.15 cells assessed as decrease in HBV e antigen secretion; type: functional, organism-based, HepG2 2.2.15; details: Hepatitis B virus, HepG2 2.2.15
[7] = system: Hepatitis B virus; experiment: Antiviral activity against Hepatitis B virus; type: functional, organism-based
[8] = system: Duck hepatitis B virus; experiment: Antiviral activity against Duck Hepatitis B virus infected in duckling assessed as decrease in DHBV DNA replication at 0.2 g/kg dosed for 10 days; type: functional; details: 240 h
[9] = Selectivity index, ratio of cytotoxicity towards human HepG2.2.15 cells to IC50 for HBV surface antigen secretion; type: toxicity, cell-based; details: read-out: Selectivity Index
[10] = system: Hepatitis B virus; experiment: Antiviral activity against Hepatitis B virus assessed as inhibition of Hepatitis B virus DNA replication; type: functional, organism-based
[11] = system: Hepatitis B virus; experiment: Antiviral activity against Hepatitis B virus infected in human HepG2.2.15 cells assessed as decrease in HBV surface antigen secretion after 21 days; type: functional, organism-based; details: HepG2 2.2.15, 504 h
[12] = system: Hepatitis B virus; experiment: Antiviral activity against Hepatitis B virus assessed as inhibition of Hepatitis B virus e antigen secretion; type: functional, organism-based
[13] = system: Hepatitis B virus; experiment: Antiviral activity against Hepatitis B virus assessed as inhibition of Hepatitis B virus surface antigen secretion; type: functional, organism-based
[14] = system: Hepatitis B virus; experiment: Antiviral activity against Hepatitis B virus infected in human HepG2.2.15 cells assessed as decrease in HBV DNA production by quantitative RT-PCR analysis; type: functional, organism-based; details: HepG2 2.2.15
[15] = system: Hepatitis B virus; experiment: Antiviral activity against Hepatitis B virus infected in human HepG2.2.15 cells assessed as decrease in HBV e antigen secretion by ELISA; type: functional, organism-based; details: HepG2 2.2.15
[16] = system: Hepatitis B virus; experiment: Antiviral activity against Hepatitis B virus infected in human HepG2.2.15 cells assessed as decrease in HBV surface antigen secretion by ELISA; type: functional, organism-based; details: HepG2 2.2.15
[17] = system: Hepatitis B virus; experiment: Antiviral activity against Hepatitis B virus infected in human HepG2.2.15 cells assessed as decrease in HBV e antigen secretion after 9 days; type: functional, organism-based; details: HepG2 2.2.15, 216 h
[18] = system: Hepatitis B virus; experiment: Antiviral activity against Hepatitis B virus infected in human MS-G2 cells assessed as decrease in HBV surface antigen production at 20 ug/ml; type: functional

Structure (SMILES): COc1cc2cc3c(nc2c(CN2CCCC2)c1O)-c1ccc(C)cc1SC3
IC50 [2]: < 10000 nM

Structure (SMILES): COc1ccc2c(c1)-c1nc3c(CN4CCCCC4)c(O)c(OC)cc3cc1CS2
IC50 [2]: < 10000 nM

Structure (SMILES): CC(=O)O[C@H]([C@@H](O)C[C@@H](C)C1=C2C[C@H](O)[C@H]3[C@@]4(C)CCC(=O)C(C)(C)[C@@H]4CC[C@]3(C)[C@@]2(C)CC1)C(C)(C)O
IC50 [4]: 600 nM

Structure (SMILES): C=C(C)[C@H](O)[C@@H](O)C[C@@H](C)C1=C2C[C@H](O)[C@H]3[C@@]4(C)CCC(=O)C(C)(C)[C@@H]4CC[C@]3(C)[C@@]2(C)CC1
IC50 [4]: 600 nM

Structure (SMILES): C[C@@H]1C[C@@H]([C@@H](O)C(C)(C)O)O[C@H]2C[C@@]3(C)C(=C12)C[C@H](O)[C@H]1[C@@]2(C)CCC(=O)C(C)(C)[C@@H]2CC[C@@]13C
IC50 [4]: 600 nM

Structure (SMILES): CC(=O)O[C@H]([C@@H]1C[C@@H](C)C2=C3C[C@H](O)[C@H]4[C@@]5(C)CCC(=O)C(C)(C)[C@@H]5CC[C@]4(C)[C@@]3(C)C[C@@H]2O1)C(C)(C)O
selectivity ratio [5]: 18.5
IC50 [6]: 5100 nM
IC50 [4]: 600 nM

Structure (SMILES): C[C@H](C[C@H](O)[C@@H](O)C(C)(C)O)[C@]12CC[C@@]3(C)[C@@]1(C[C@H](O)[C@H]1[C@@]4(C)CCC(=O)C(C)(C)[C@@H]4CC[C@@]13C)O2
IC50 [4]: 600 nM

Structure (SMILES): C[C@@H]1CC[C@]2(C(=O)O[C@@H]3O[C@H](CO)[C@@H](O)[C@H](O)[C@H]3O)CC[C@]3(C)C(=CC[C@@H]4[C@@]5(C)C[C@@H](O)[C@H](O)C(C)(C)[C@@H]5CC[C@]43C)[C@@H]2[C@]1(C)O
inhibition in vivo at 200 mg/kg [8]: 58.5%
selectivity ratio [1]: 12.1
selectivity ratio [9]: 4.1
IC50 [2]: 19.4 µg/mL
selectivity ratio [5]: 7.86
IC50 [6]: 30 µg/mL
IC50 [4]: 57.7 µg/mL

Structure (SMILES): CCN(CC)Cc1c(O)c(OC)cc2nc3c(cc12)CSc1ccc(C)cc1-3
IC50 [2]: < 10000 nM

Structure (SMILES): COc1cc2nc3c(cc2c(CN2CCCCC2)c1O)CSc1c(C)cc(C)cc1-3
IC50 [2]: < 10000 nM

Structure (SMILES): C[C@@H]1CC[C@H]2[C@@H](C)C(=O)O[C@@H]3O[C@@]4(C)CC[C@@H]1[C@]32OO4 [ARTEMISININ]
IC50 [11]: 55000 nM

Structure (SMILES): C[C@H]1[C@H](OC(=O)CCC(=O)O)O[C@@H]2O[C@@]3(C)CC[C@H]4[C@H](C)CC[C@@H]1[C@@]24OO3 [ARTESUNATE]
IC50 [11]: 2300 nM

Structure (SMILES): Cc1oc2nc1C(=O)N[C@@H](C)c1nc(co1)C(=O)N[C@@H](CC(C)C)C(=O)N1CCC[C@H]1C(=O)N[C@@H](C(C)C)c1nc-2cs1 [LEUCAMIDE A]
IC50 [10]: 76400 nM

Structure (SMILES): CC(=O)Oc1ccccc1C(=O)Nc1ncc([N+](=O)[O-])s1 [NITAZOXANIDE]
EC50 [7]: 120 nM

Structure (SMILES): O=Cc1ccc(O)c(O)c1 [PROTOCATECHUALDEHYDE]
IC50 [14]: 4.17 µg/mL (≈ 30.2 µM)
EC50 [15]: 2.46 µg/mL (≈ 17.8 µM)
EC50 [16]: 3.94 µg/mL (≈ 28.5 µM)

Structure (SMILES): Cc1cc(O)c2c(c1)C(=O)c1cccc(O[C@@H]3O[C@H](CO)[C@@H](O)[C@H](O)[C@H]3O)c1C2=O [PULMATIN]
selectivity ratio [1]: > 42
selectivity ratio [9]: > 42
selectivity ratio [5]: > 42

Further lines, with some results ahead:

IC50 [2]: 2600 nM
Structure (SMILES): CCOC(=O)c1cc2cc(OC)c(O)c(Cn3ccnc3)c2nc1C[S+]([O-])c1ccc(F)c(F)c1 (stereo unspecified)
selectivity ratio [1]: 61.7

IC50 [2]: < 10000 nM
Structure (SMILES): COc1cc2cc3c(nc2c(CN2CCCCC2)c1O)-c1ccc(F)cc1SC3

IC50 [2]: 1700 nM
Structure (SMILES): COc1cc2cc3c(nc2c(Cn2ccnc2C)c1O)-c1ccc(F)cc1SC3
selectivity ratio [1]: 60.3

IC50 [3]: 5400 nM
Structure (SMILES): O=C1OC(OCc2ccccc2)=N/C1=C\c1ccccc1

EC50 [7]: 80 nM
Structure (SMILES): O=C1NCc2c1cc1ccc3c(c1c2-c1ccc2c(c1)OCO2)OCO3

EC50 [7]: 30 nM
Structure (SMILES): O=c1[nH][nH]c(=O)c2c(-c3ccc4c(c3)OCO4)c3c4c(ccc3cc12)OCO4

IC50 [2]: < 10000 nM
Structure (SMILES): CCN(CC)Cc1c(O)c(OC)cc2nc3c(cc12)CSc1cc(F)ccc1-3

IC50 [10]: 50 nM
Structure (SMILES): COC(=O)C1=C(C)NC(c2ncc(F)cc2F)=N[C@H]1c1ccc(F)cc1Cl

IC50 [12]: < 50 nM
IC50 [13]: < 50 nM
Structure (SMILES): COc1ccc2c(c1OC)CN(C)c1c-2ccc2cc3c(cc12)OCO3 [DIHYDROCHELERYTHRINE]

EC50 [7]: 1000 nM
Structure (SMILES): O=C1OCc2c1cc1ccc3c(c1c2-c1ccc2c(c1)OCO2)OCO3 [HELIOXANTHIN]

IC50 [10]: 260 nM
IC50 [2]: 343000 nM
Structure (SMILES): Nc1ccn([C@@H]2CS[C@H](CO)O2)c(=O)n1 [LAMIVUDINE]
selectivity ratio [1]: 7

IC50 [17]: 4 µg/mL (≈ 14.1 µM)
Structure (SMILES): COc1c(O)cc(O)c2c(=O)cc(-c3ccccc3)oc12 [WOGONIN]
inhibition at 20 µg/mL [18]: 45.4%

From ChEMBL document CHEMBL3120134, “A review of non-nucleoside anti-hepatitis B virus agents” (Eur J Med Chem, 2014)
